Assay results published in patent US7862807B2, “Dendrimers as molecular translocators” (University of California, San Diego, priority 2002, dated 2011).

Experiments:
[1] = system: HeLa S3 human epithelioid cervical carcinoma cells; assay: Cellular uptake of fluorescein-labeled dendrimers quantified by flow cytometry (FACS); format: cell-based; details: for saturation of uptake reached with increasing concentration: concentration increased up to 50 μM; for delivery to HeLa S3 cells (in words): 250 nM to 50 μM; for Percentage of Cellular Uptake: 4 hours, 37° C., average of two experiments
Protocol: HeLa S3, human epithelioid cervical carcinoma cells of approximately 50% confluency were treated with concentrations varying from 250 nM to 50 μM of each of the molecular transporters 10, 11, 12, 13, and 41 at 37° C. The molecular transporters were directly added to the media (Dulbecco's modified eagle medium containing 10% fetal bovine serum and 1× antibiotic-antimycotic), and the delivery to the cells was visualized by microscopy.
Quantification of the uptake of the molecular transporter into the cells was performed by flow cytometry 4 hours after treatment. Adherent cells, grown on 6 well plates, were displaced with trypsin, after which the cells were washed with phosphate-buffered saline (PBS). The final cell pellet was collected by centrifugation and resuspended in PBS to a concentration of approximately 1×10^6 cells/mL. A minimum of 20,000 cell events were counted and analyzed using the FACSCalibur and CellQuest brand software (BD Biosciences, San Jose, Calif.).

HeLa S3 cells = assay: Sulphorhodamine B (SRB) cytotoxicity assay; format: cell-based, human; details: 4 hour treatment, concentrations up to 50 μM
Protocol: The cells were treated with varying concentrations (250 nM to 50 μM) of compound 12 for 4 hours at 37° C. The cells were fixed with trichloroacetic acid and were then subsequently stained with SRB dye. The cells were washed with water, and the SRB-bound complexes were solubilized in Tris buffer. The absorbance at 572 nm was measured in each sample.

[2] = Solubility in H2O noted on isolation; format: physicochemical; details: isolated salt

Structure (SMILES) | saturation of uptake reached with increasing concentration [1] | delivery to HeLa S3 cells (in words) [1] | Percentage of Cellular Uptake ([1]; 250 nM) [%] | Percentage of Cellular Uptake ([1]; 500 nM) [%] | Percentage of Cellular Uptake ([1]; 1 μM) [%] | Percentage of Cellular Uptake ([1]; 5 μM) [%] | Percentage of Cellular Uptake ([1]; 10 μM) [%] | Percentage of Cellular Uptake ([1]; 25 μM) [%] | Percentage of Cellular Uptake ([1]; 50 μM) [%] | cytotoxic effect / cell lysis (HeLa S3 cells) | solubility in H2O [2]
Cl.Cl.Cl.N=C(N)NCCNC(=O)CCOCC(COCCC(=O)NCCNC(=N)N)(COCCC(=O)NCCNC(=N)N)NC(=O)CCNC(=S)Nc1ccc(-c2c3ccc(=O)cc-3oc3cc(O)ccc23)c(C(=O)O)c1 (stereo not shown) [Compound 10] | approximately 100% |  |  |  |  |  |  |  |  |  | 
Cl.Cl.Cl.Cl.Cl.Cl.N=C(N)NCCNC(=O)CCOCC(COCCC(=O)NCCNC(=N)N)(COCCC(=O)NCCNC(=N)N)NC(=O)CCNC(=O)c1cc(C(=O)NCCNC(=O)CCNC(=S)Nc2ccc(-c3c4ccc(=O)cc-4oc4cc(O)ccc34)c(C(=O)O)c2)cc(C(=O)NCCC(=O)NC(COCCC(=O)NCCNC(=N)N)(COCCC(=O)NCCNC(=N)N)COCCC(=O)NCCNC(=N)N)c1 (stereo not shown) [Compound 11] | approximately 100% | excellent delivery | 4.56 | 7.52 | 11.74 | 94.54 | 98.55 | 99.79 | 99.87 |  | 
Cl.Cl.Cl.Cl.Cl.Cl.Cl.Cl.Cl.N=C(N)NCCNC(=O)CCOCC(COCCC(=O)NCCNC(=N)N)(COCCC(=O)NCCNC(=N)N)NC(=O)CCNC(=O)CCOCC(COCCC(=O)NCCC(=O)NC(COCCC(=O)NCCNC(=N)N)(COCCC(=O)NCCNC(=N)N)COCCC(=O)NCCNC(=N)N)(COCCC(=O)NCCC(=O)NC(COCCC(=O)NCCNC(=N)N)(COCCC(=O)NCCNC(=N)N)COCCC(=O)NCCNC(=N)N)NC(=O)CCNC(=S)Nc1ccc(-c2c3ccc(=O)cc-3oc3cc(O)ccc23)c(C(=O)O)c1 (stereo not shown) [Compound 12] | approximately 100% | excellent delivery | 9.07 | 8.71 | 9.17 | 63.52 | 91.74 | 98.61 | 99.75 | no cytotoxic effect and did not cause cell lysis | 
Cl.Cl.Cl.Cl.Cl.Cl.Cl.Cl.Cl.Cl.Cl.Cl.N=C(N)NCCNC(=O)CCOCC(COCCC(=O)NCCNC(=N)N)(COCCC(=O)NCCNC(=N)N)NC(=O)CCNC(=O)CCOCC(COCCC(=O)NCCC(=O)NC(COCCC(=O)NCCNC(=N)N)(COCCC(=O)NCCNC(=N)N)COCCC(=O)NCCNC(=N)N)NC(=O)CCNC(=O)CCOCC(COCCC(=O)NCCC(=O)NC(COCCC(=O)NCCC(=O)NC(COCCC(=O)NCCNC(=N)N)(COCCC(=O)NCCNC(=N)N)COCCC(=O)NCCNC(=N)N)COCCC(=O)NCCC(=O)NC(COCCC(=O)NCCNC(=N)N)(COCCC(=O)NCCNC(=N)N)COCCC(=O)NCCNC(=N)N)NC(=O)CCNC(=S)Nc1ccc(-c2c3ccc(=O)cc-3oc3cc(O)ccc23)c(C(=O)O)c1 (stereo not shown) [Compound 13] | approximately 100% | excellent delivery | 3.22 | 6.59 | 11.91 | 90.79 | 96.77 | 99.11 | 99.82 |  | barely soluble in H2O
N=C(N)NCCNC(=O)CCCCCNC(=O)CCNC(=S)Nc1ccc(-c2c3ccc(=O)cc-3oc3cc(O)ccc23)c(C(=O)O)c1 [Compound 41, 5-(3-{2-[5-(2-Guanidinoethylcarbamoyl)-pentylcarbamoyl]-ethyl}-thioureido)-2-(6-hydroxy-3-oxo-3H-xanthen-9-yl)-benzoic acid] | approximately 100% |  |  |  |  |  |  |  |  |  | 
